# Reference: PubChem BioAssay (NCI)
#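 The concentration for 50% growth inhibition is given as GI50. At the TGI there is no net growth.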
# What was measured:
# Assay in all cases: inhibition of tumour cell growth, NCI panel, 384-well format
# [1] = test system: SF-539 CNS
# [2] = test system: SNB-75 CNS
# [3] = test system: MDA-MB-231 breast
# [4] = test system: NCI-H226 lung
# [5] = test system: MDA-MB-468 breast
# [6] = test system: PC-3 prostate
# [7] = test system: CCRF-CEM leukemia
# [8] = test system: SF-295 CNS
# [9] = test system: NCI-H23 lung
# [10] = test system: OVCAR-5 ovarian
# [11] = test system: T-47D breast
# [12] = test system: BT-549 breast
# [13] = test system: UACC-62 melanoma
# [14] = test system: A549 NSCLC
# [15] = test system: UO-31 renal
# [16] = test system: HCT-116 colon
# [17] = test system: OVCAR-4 ovarian
# [18] = test system: M14 melanoma
# [19] = test system: DU-145 prostate
# [20] = test system: MDA-MB-435 melanoma
# [21] = test system: CAKI-1 renal
# [22] = test system: HT29 colon
# [23] = test system: SK-MEL-28 melanoma
# [24] = test system: SF-268 CNS
# [25] = test system: HS 578T breast
# [26] = test system: HOP-62 NSCLC
# [27] = test system: MCF7 breast
# [28] = test system: NCI/ADR-RES ovarian
# [29] = test system: MALME-3M melanoma
# [30] = test system: OVCAR-3 ovarian
# [31] = test system: OVCAR-8 ovarian
# [32] = test system: A498 renal
# [33] = test system: HOP-92 NSCLC
# [34] = test system: HCT-15 colon
# [35] = test system: NCI-H522 lung
# [36] = test system: SK-OV-3 ovarian
# [37] = test system: SK-MEL-2 melanoma
# [38] = test system: UACC-257 melanoma
# [39] = test system: EKVX NSCLC
# [40] = test system: SN12C renal
# [41] = test system: ACHN renal
# [42] = test system: SW-620 colon
# [43] = test system: U251 glioblastoma
# [44] = test system: IGROV1 ovarian
# [45] = test system: 786-0 renal
# [46] = test system: K-562 leukemia
# [47] = test system: LOX IMVI melanoma
# [48] = test system: KM12 colon
# [49] = test system: NCI-H322M lung
# [50] = test system: RPMI-8226 leukemia
# [51] = test system: RXF 393 renal
structure (smiles),measurement,setting,value
CC(=O)C1(O)Cc2c(O)c3c(c(O)c2C(OC2CC(N)C(O)C(C)O2)C1)C(=O)c1ccccc1C3=O (stereo not given),GI50,[1],13.5 nM
same,TGI,[1],75.5 nM
same,GI50,[2],33.4 nM
same,TGI,[2],144 nM
same,GI50,[3],19.4 nM
same,TGI,[3],106 nM
same,GI50,[4],25.7 nM
same,TGI,[4],128 nM
same,GI50,[5],14.3 nM
same,TGI,[5],34.3 nM
same,GI50,[6],60.5 nM
same,TGI,[6],214 nM
same,TGI,[7],15.6 nM
same,GI50,[8],19 nM
same,TGI,[8],51.7 nM
same,GI50,[9],23.2 nM
same,TGI,[9],90.1 nM
same,GI50,[10],44.7 nM
same,TGI,[10],242 nM
same,GI50,[11],42.1 nM
same,TGI,[11],296 nM
same,GI50,[12],20.1 nM
same,TGI,[12],94.4 nM
same,GI50,[13],18 nM
same,TGI,[13],123 nM
same,GI50,[14],13.8 nM
same,TGI,[14],133 nM
same,GI50,[15],76 nM
same,TGI,[15],209 nM
same,GI50,[16],14.6 nM
same,TGI,[16],153 nM
same,GI50,[17],178 nM
same,TGI,[17],482 nM
same,GI50,[18],17.5 nM
same,TGI,[18],114 nM
same,GI50,[19],11.3 nM
same,TGI,[19],136 nM
same,GI50,[20],78.6 nM
same,TGI,[20],230 nM
same,GI50,[21],30.9 nM
same,TGI,[21],169 nM
same,GI50,[22],27.7 nM
same,TGI,[22],106 nM
same,GI50,[23],93.8 nM
same,TGI,[23],379 nM
same,GI50,[24],24.9 nM
same,TGI,[24],126 nM
same,GI50,[25],11.8 nM
same,TGI,[25],129 nM
same,GI50,[26],13.3 nM
same,TGI,[26],34.6 nM
same,GI50,[27],24.1 nM
same,TGI,[27],225 nM
same,GI50,[28],480 nM
same,TGI,[28],2000 nM
same,GI50,[29],54.6 nM
same,TGI,[29],191 nM
same,GI50,[30],65.3 nM
same,TGI,[30],257 nM
same,GI50,[31],31.6 nM
same,TGI,[31],145 nM
same,GI50,[32],17.5 nM
same,TGI,[32],146 nM
same,GI50,[33],35.1 nM
same,TGI,[33],265 nM
same,GI50,[34],17.8 nM
same,TGI,[34],103 nM
same,GI50,[35],29.6 nM
same,TGI,[35],162 nM
same,GI50,[36],27.7 nM
same,TGI,[36],138 nM
same,GI50,[37],51.9 nM
same,TGI,[37],93.2 nM
same,GI50,[38],138 nM
same,TGI,[38],296 nM
same,GI50,[39],150 nM
same,TGI,[39],973 nM
same,GI50,[40],15.7 nM
same,TGI,[40],59.7 nM
same,GI50,[41],21.3 nM
same,TGI,[41],89.6 nM
same,GI50,[42],13.2 nM
same,TGI,[42],178 nM
same,GI50,[43],20.3 nM
same,TGI,[43],105 nM
same,GI50,[44],125 nM
same,TGI,[44],412 nM
same,GI50,[45],23.4 nM
same,TGI,[45],112 nM
same,GI50,[46],15 nM
same,TGI,[46],116 nM
same,GI50,[47],20.3 nM
same,TGI,[47],139 nM
same,GI50,[48],11.5 nM
same,TGI,[48],36.3 nM
same,GI50,[49],190 nM
same,TGI,[49],572 nM
same,TGI,[50],19.1 nM
same,GI50,[51],53.9 nM
same,TGI,[51],197 nM
